Results as given in patent publication US20140296316A1, “HYDRATE AND CRYSTAL OF FLUORENE COMPOUNDS” (JAPAN TOBACCO INC., priority 2013, published 2014).

How the values were obtained:
[1] = Water adsorption and desorption test; format: physicochemical; settings: for weight decrease on pre-drying: pre-dried under a dried nitrogen stream, 60° C.; for weight increase by humidification after drying: with pre-drying, humidification up to relative humidity 10%, 25° C.
[2] = Water adsorption and desorption test; format: physicochemical; settings: for hygroscopicity: conclusion of the water adsorption and desorption test; for hygroscopicity / moisture absorption under relative humidity 95%: without pre-drying
Experimental: Water adsorption and desorption test was performed using a water equilibrium measuring apparatus (SGA-100, manufactured by VTI).
A water adsorption and desorption test was performed by the following method.
Method 1 (without Pre-Drying):
Form I crystal (about 10 mg) was weighed in a quartz cell, and a weight change ratio was measured when it reached equilibrium at 25° C. and each relative humidity, by using a water equilibrium measuring apparatus (SGA-100, manufactured by VTI).
Test temperature: 25° C. Equilibrating conditions: weight change ratio was not more than 0.03% in 5 min Maximum equilibrating time: 180 min Change of relative humidity: increased from 5% to 95% at 5% intervals, and decreased from 95% to 5% at 5% intervals. Method 2 (with Pre-Drying):
Form I crystal (about 10 mg) was weighed in a quartz cell, dried under a dried nitrogen stream at 60° C., and a weight change ratio was measured when it reached equilibrium at 25° C. and each relative humidity, by using a water equilibrium measuring apparatus (SGA-100, manufactured by VTI).
Test temperature: 25° C. Equilibrating conditions: weight change ratio was not more than 0.03% in 5 min Maximum equilibrating time: 180 min Change of relative humidity: increased from 5% to 95% at 5% intervals, and decreased from 95% to 5% at 5% intervals.
In the water adsorption and desorption test, the measurement was performed under two conditions of “with pre-drying (drying before test)” and “without pre-drying (drying before test)”, wherein humidification and drying were repeated once. […] Therefore, it was assumed that pre-drying completely evaporated crystal water.

human PDHK2 (hPDHK2) = biological target: T1, human PDHK2 (hPDHK2) (Homo sapiens, UniProt Q15119); test: Inhibitory action of PDHK2 activity in vitro (residual PDH activity after kinase reaction); format: biochemical; settings: PDH/hPDHK2 complex, PDHK reaction 45 min at room temperature
T1 construct: made in house; host or cells: Escherichia coli BL21(DE3), pET17b vector
Experimental: (§1) The inhibitory action of PDHK activity was assessed indirectly by measuring the residual PDH activity after kinase reaction in the presence of a test compound.
The recombinant construct was transformed into Escherichia coli (DB5α-TOYOBO). The recombinant clones were identified, and plasmid DNA was isolated and subjected to the DNA sequence analysis. One clone which had the expected nucleic acid sequence was selected for expression work.
For expression of hPDHK2 activity, Escherichia coli strain BL21(DE3) cells (Novagen) were transformed with the pET17b vector containing modified hPDHK2 cDNA. The Escherichia coli were grown to an optical density 0.6 ([…]) at 30° C. Protein expression was induced by the addition of 500 μmol/L isopropyl-β-thiogalactopyranoside. […]
0.05 U/mL PDH and 0.8 μg/mL hPDHK2 were mixed in a buffer (50 mmol/L 3-morpholinopropanesulfonic acid (pH 7.0), 20 mmol/L dipotassium hydrogen phosphate, 60 mmol/L potassium chloride, 2 mmol/L magnesium chloride, 0.4 mmol/L EDTA, and 0.2% Pluronic F-68, 2 mmol/L dithiothreitol), and the mixture was incubated at 4° C. overnight to obtain a PDH/hPDHK2 complex. […] The mixture was incubated at room temperature for 90 min, and the residual PDH activity was measured. The absorbance at 340 nm before and after PDH reaction was measured using a microplate reader to detect NADH produced by the PDH reaction. […]

human PDHK1 (hPDHK1) = biological target: T2, human PDHK1 (hPDHK1) (Homo sapiens, UniProt Q15118); test: Inhibitory action of PDHK1 activity in vitro (residual PDH activity after kinase reaction); format: biochemical; settings: PDH/hPDHK1 complex, PDHK reaction 45 min at room temperature
T2 construct: made in house; host or cells: Escherichia coli BL21(DE3), pET17b vector
Experimental: as §1
In the case of human PDHK1 (hPDHK1, Genbank Accession No. L42450.1), a 1.3 kbp fragment encoding this protein was isolated from human liver cDNA by polymerase chain reaction (PCR). Modified hPDHK1 cDNA wherein FLAG-Tag sequence was added to the N terminus was prepared by PCR and cloned into a vector (pET17b-Novagen). The recombinant construct was transformed into Escherichia coli (DH5α-TOYOB0). The recombinant clones were identified, and plasmid DNA was isolated and subjected to the DNA sequence analysis. One clone which had the expected nucleic acid sequence was selected for expression work. […]
Then, 10 μL of substrates (5 mmol/L sodium pyruvate, 5 mmol/L Coenzyme A, 12 mmol/L NAD, 5 mmol/L thiamin pyrophosphate, diluted with buffer) were added. The mixture was incubated at room temperature for 90 min, and the residual PDH activity was measured.
The absorbance at 340 nm before and after PDH reaction was measured using a microplate reader to detect NADH produced by the PDH reaction. The hPDHK1 inhibition rate (%) of the test compound was calculated from the formula [{(PDH activity of the test compound−PDH activity of control)/PDH activity of blank−PDH activity of control)}×100]. […]

T2 sequence (Q15118 29-436): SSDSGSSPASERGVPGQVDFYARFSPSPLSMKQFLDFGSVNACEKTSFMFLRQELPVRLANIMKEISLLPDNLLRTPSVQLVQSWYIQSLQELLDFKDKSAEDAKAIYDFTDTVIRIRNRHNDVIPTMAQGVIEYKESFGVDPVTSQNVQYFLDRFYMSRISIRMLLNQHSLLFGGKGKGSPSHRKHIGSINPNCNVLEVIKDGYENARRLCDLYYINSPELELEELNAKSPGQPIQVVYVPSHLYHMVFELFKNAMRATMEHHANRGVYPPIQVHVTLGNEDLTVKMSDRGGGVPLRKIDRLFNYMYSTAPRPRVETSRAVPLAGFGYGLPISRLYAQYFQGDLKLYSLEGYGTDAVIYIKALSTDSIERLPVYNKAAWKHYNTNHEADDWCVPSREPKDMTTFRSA

| Structure (SMILES) | weight decrease on pre-drying [1] | weight increase by humidification after drying [1] | hygroscopicity [2] | moisture absorption under relative humidity 95% ([2]; 25° C.) | IC50 (human PDHK2 (hPDHK2)) | weight decrease on pre-drying ([2]; pre-dried under a dried nitrogen stream, 60° C.) | weight increase by humidification after drying ([2]; with pre-drying, humidification up to relative humidity 50%, 25° C.) | IC50 (human PDHK1 (hPDHK1)) |
| --- | --- | --- | --- | --- | --- | --- | --- | --- |
| CC(CO)(CO)n1cc(-c2cc(F)cc3c2-c2ccccc2[C@]3(O)C(F)(F)F)cn1 [Form V crystal of compound (Ah), 0.5 hydrate of 2-{4-[(9R)-2-fluoro-9-hydroxy-9-(trifluoromethyl)-9H-fluoren-4-yl]-pyrazol-1-yl}-2-methyl-propane-1,3-diol] | 2.36% | 2.46% | does not have hygroscopicity | remarkable moisture absorption was not found | – | – | – | – |
| Cc1cc(-c2cnn(C(CO)(CO)CO)c2)c2c(c1)[C@@](O)(C(F)(F)F)c1ccccc1-2 [Form IVb crystal of compound (Bh), 2 hydrate of 2-hydroxymethyl-2-{4-[(9R)-9-hydroxy-2-methyl-9-(trifluoromethyl)-9H-fluoren-4-yl]-pyrazol-1-yl}-propane-1,3-diol] | – | – | does not have hygroscopicity | remarkable moisture absorption was not found | 20 nM | 7.75% | 7.93% | – |
| CC(CO)(CO)n1cc(-c2cc(F)cc3c2-c2ccccc2[C@]3(O)C(F)(F)F)cn1 [Form I crystal of compound (Ah), 0.5 hydrate of 2-{4-[(9R)-2-fluoro-9-hydroxy-9-(trifluoromethyl)-9H-fluoren-4-yl]-pyrazol-1-yl}-2-methyl-propane-1,3-diol] | 2.15% | 2.44% | does not have hygroscopicity | remarkable moisture absorption was not found | 14 nM | – | – | 26 nM |
